Results: the NIST ThermoML archive (doi:10.1021/je700152c)

Experiment: molar heat capacity at saturation pressure; xn = mol fraction of the nth substance listed

CCCCn1cc[n+](C)c1.Cc1ccc(S(=O)(=O)[O-])cc1 [1-butyl-3-methylimidazolium tosylate] + O
Settings	molar heat capacity [J/K/mol]
272.47 K, Crystal, x1 = 0.83	347
272.55 K, Metastable crystal, x1 = 0.83	367.59
272.66 K, Crystal, x1 = 0.37	265.28
272.99 K, Crystal, x1 = 0.3	264.76
273.8 K, Crystal, x1 = 0.37	270.96
273.97 K, Crystal, x1 = 0.3	269.83
274.39 K, Metastable crystal, x1 = 0.83	371.51
274.51 K, Crystal, x1 = 0.83	353.78
274.92 K, Crystal, x1 = 0.37	276.89
274.93 K, Crystal, x1 = 0.3	276.18
275.88 K, Crystal, x1 = 0.3	281.68
276.03 K, Crystal, x1 = 0.37	283.2
276.22 K, Metastable crystal, x1 = 0.83	375.42
276.53 K, Crystal, x1 = 0.83	361.08
276.82 K, Crystal, x1 = 0.3	288.23
277.13 K, Crystal, x1 = 0.37	289.76
277.75 K, Crystal, x1 = 0.3	295.53
278.04 K, Metastable crystal, x1 = 0.83	379.33
278.22 K, Crystal, x1 = 0.37	296.83
278.52 K, Crystal, x1 = 0.83	369.42
278.68 K, Crystal, x1 = 0.3	301.77
279.29 K, Crystal, x1 = 0.37	304.4
279.59 K, Crystal, x1 = 0.3	309.59
279.86 K, Metastable crystal, x1 = 0.83	383.76
280.35 K, Crystal, x1 = 0.37	312.6
280.48 K, Crystal, x1 = 0.3	318.37
280.49 K, Crystal, x1 = 0.83	379.59
281.36 K, Crystal, x1 = 0.3	326.4
281.39 K, Crystal, x1 = 0.37	321.44
281.67 K, Metastable crystal, x1 = 0.83	388.19
282.23 K, Crystal, x1 = 0.3	334.33
282.42 K, Crystal, x1 = 0.37	331.41
282.42 K, Crystal, x1 = 0.83	391.58
283.09 K, Crystal, x1 = 0.3	343.11
283.44 K, Crystal, x1 = 0.37	340.37
283.47 K, Metastable crystal, x1 = 0.83	393.14
283.93 K, Crystal, x1 = 0.3	351.57
284.33 K, Crystal, x1 = 0.83	406.44
284.44 K, Crystal, x1 = 0.37	351.47
284.76 K, Crystal, x1 = 0.3	360.66
285.26 K, Metastable crystal, x1 = 0.83	399.66
285.41 K, Crystal, x1 = 0.37	362.2
285.58 K, Crystal, x1 = 0.3	372.5
286.18 K, Crystal, x1 = 0.83	423.91
286.37 K, Crystal, x1 = 0.3	390.05
286.38 K, Crystal, x1 = 0.37	375.33
287.02 K, Metastable crystal, x1 = 0.83	407.22
287.16 K, Crystal, x1 = 0.3	386.46
287.33 K, Crystal, x1 = 0.37	388.2
287.96 K, Crystal, x1 = 0.3	383.82
288 K, Crystal, x1 = 0.83	449.2
288.25 K, Crystal, x1 = 0.37	402.21
288.77 K, Crystal, x1 = 0.3	372.08
288.84 K, Metastable crystal, x1 = 0.83	414.26
289.16 K, Crystal, x1 = 0.37	417.23
289.6 K, Crystal, x1 = 0.3	343.95
289.76 K, Crystal, x1 = 0.83	475.27
290.05 K, Crystal, x1 = 0.37	434.26
290.49 K, Crystal, x1 = 0.3	303.04
290.69 K, Metastable crystal, x1 = 0.83	420.52
290.92 K, Crystal, x1 = 0.37	452.18
291.45 K, Crystal, x1 = 0.3	258.1
291.45 K, Crystal, x1 = 0.83	514.89
291.76 K, Crystal, x1 = 0.37	471.62
292.49 K, Crystal, x1 = 0.3	228.39
292.58 K, Crystal, x1 = 0.37	492.69
292.6 K, Metastable crystal, x1 = 0.83	426.25
293.09 K, Crystal, x1 = 0.83	549.83
293.38 K, Crystal, x1 = 0.37	514.4
293.57 K, Crystal, x1 = 0.3	214.64
294.16 K, Crystal, x1 = 0.37	540.9
294.56 K, Metastable crystal, x1 = 0.83	426.77
